What was measured:
HPF-hTERT = experiment: Cytotoxic activity, MTT assay; assay type: cell-based, human; conditions: 72 h
Protocol: (§1) The cytotoxic activity of the compounds was evaluated on the healthy donor (postnatal) human fibroblasts immortalized by transfection of the hTERT gene of the catalytic component of telomerase (hereinafter HPF-hTERT) that were obtained from N.N. Blokhin Russian Cancer Research Center. HFC-hTERT cells were cultured in Dulbecco’s modified medium (DMEM) containing 2 mM of L-glutamine, 10% fetal calf serum, 100 U/mL of penicillin and 100 μg/mL of streptomycin. Incubation was performed in a humidified atmosphere of 5% CO2 at 37 °C. In the experiment, we used cells in the logarithmic growth phase. To study the cytotoxicity of compounds, 190 μL of cell suspension (~2 thousand cells per well) was added to the wells of 96-well plates and incubated for 16 h. On the day of the experiment, serial dilutions of the test compounds were prepared in DMSO (stock solution—10 mM in 100% DMSO). Further dilutions were conducted in a nutrient medium. The final concentrations of compounds in the experiment were in a concentration range from 0.0025 to 50 μM. The final concentration of DMSO was 1% or less. Each concentration was presented in 3 repetitions. […] The cells were incubated with the test compounds for 72 h. After the end of incubation, 20 μL of MTT solution in growth medium (5 mg/mL) was added to the wells. The cells were incubated for 2 h until a purple color developed, after which the culture medium was removed. DMSO was added to the wells, and the sediment was suspended. Optical density was measured with a Thermo Scientific Multiscan FC spectrophotometer at 570 nm. The values of optical density in wells without addition of test compounds (control) were taken as 100% cell survival. The percentage of survival of cells incubated with the test compounds was calculated by dividing the optical density in the corresponding well (average of 3 independent measurements) by the optical density in the control. The concentration of drugs causing 50% cell death (IC50) was evaluated and expressed in μg/mL.

[1] = Cytotoxic activity, MTT assay; assay type: cell-based, human; conditions: human, HPF-hTERT
Protocol: as §1

[2] = Acute toxicity study, intravenous; assay type: in vivo; conditions: female, SHK, mouse, in vivo, mice, single intravenous; for MTD: read-out: MTD (LD10)
Protocol: (§2) In toxicological experiments with each compound, 72 to 108 animals were used and divided into 8 or 9 experimental groups (6 to 12 mice each), in which the animals received various doses of the tested compounds. There was also a control group of animals, which was injected with the corresponding solvent instead of the experimental compound, and a control group of intact animals. The prepared substances were injected into the animals intravenously (into the tail vein); the dose range was from 1.0 to 100 mg/kg.
(§3) The study was conducted on adult female SHK mice (18–20 g) obtained from the animal breeding unit of the FMBA (Scientific Center for Biomedical Technologies of the Federal Biomedical Agency, Moscow, Russia). The animals were randomly divided into groups (n = 6 for the study of acute toxicity, n = 10 (or 8) to study the efficacy of suppressing staphylococcal sepsis). The study of the effectiveness of drugs in the treatment of staphylococcal sepsis required the use of 110–175 mice for each drug, 10 animals per group. The animal study was approved by the Ethics of Animal Experimentation of Gause Institute of New Antibiotics (protocol No 13/2019).
(§4) To prepare solutions of preparations suitable for intravenous administration, dried test compounds with a purity of at least 99% were dissolved in a 5% glucose solution for intravenous administration at a concentration of 3.2 or 6.4 mg/mL. The solutions were sterilized by filtration through Sterivex 0.22 μm filters (Millipore, Burlington, MA, USA). Sterile solutions of drugs with a reduced concentration were then prepared, which allowed for the introduction ofvarious doses of drugs with the same volume (0.2 mL) of solutions. The test preparations were stored at a temperature no higher than 25 °C.
(§5) The study of acute toxicity of each drug was conducted on 72 mice (6 mice per group) using a solution of the test drug prepared in 5% glucose solution. The drug was injected into the tail vein of the animals (0.2 mL) using a syringe with a metal needle in a dose range of 1.0 mg/kg to 70 mg/kg.
(§6) From the first day after administration, the animals were under continuous observation. The number of dead animals and the time of their death were recorded daily. The body weight of the animals and their food consumption was recorded once a week, and the clinical signs of the animals’ health were assessed daily. The duration of observation of the animals was at least 30 days after the last death of the animal. Doses characterizing the toxicity of drugs were calculated by the Litchfield and Wilcoxon method using the StatPlus 2006 software AnalystSoft StatPlus—statistical analysis program, version 2006 (http://www.analystsoft.com/, accessed 11 January 2022). The mean and standard deviation were calculated for all data. The differences are defined as significant at p ≤ 0.05.

SHK mice = experiment: Acute toxicity study, intravenous; assay type: in vivo; conditions: for LD16 / LD84 / LD100: single intravenous; for time of death of animals after administration: in words
Protocol: as §2, §3, §4, §5, §6

[3] = test system: yeast (Candida albicans) and fungi (Aspergillus niger); experiment: Antifungal activity; assay type: cell-based; conditions: for antifungal activity: in words
Protocol: We have tested the antimicrobial activity in vitro of over 100 tris(indolyl)methane derivatives against 16 strains of Gram-positive, Gram-negative bacteria and fungi including either sensitive or drug-resistant strains from ATCC, as well as resistant clinical isolates from the culture collection of the Laboratory for Control of Hospital Infections (Sechenov University, Moscow, Russia). The minimum inhibitory concentrations (MICs) were determined by the microdilution method in a cation-adjusted Müller–Hinton medium for bacteria and in a liquid culture medium RPMI 1640 with L-glutamine without sodium bicarbonate for fungi in accordance with the requirements of the Institute of Clinical and Laboratory Standards (CLSI/NCCLS). […] As a rule, their activity against Gram-negative bacteria was usually not that high. […] For comparison, the antimicrobial activity of prototype 4 is shown. The antibacterial antibiotic levofloxacin and the antifungal amphotericin B were used as reference drugs (Table 1).
The minimum inhibitory concentrations (MIC) for Gram-positive and Gram-negative bacteria were determined by two-fold serial microdilution method in a cation-adjusted Müller–Hinton medium for bacteria and in a liquid culture medium RPMI 1640 with L-glutamine without sodium bicarbonate for fungi in accordance with the requirements of the Institute of Clinical and Laboratory Standards (CLSI/NCCLS). The antibacterial antibiotic levofloxacin and the antifungal antibiotic amphotericin B from Sigma-Aldrich were used as reference drugs.

For `OCCCCCn1cc([C+](c2cn(CCCCCO)c3ccccc23)c2cn(CCCCCO)c3ccccc23)c2ccccc21.[Cl-]` [Compound 1, tris(1-(5-Hydroxypentyl)-1H-indol-3-yl) methylium chloride], the “Cytotoxic Activity IC50” value (HPF-hTERT) was 13 µg/mL, the IC50 at 72 h [1] was 12.6 µg/mL and the LD50 [2] was 26.2 mg/kg. The MTD [2] was 22.6 mg/kg, the “time of death of animals after drug administration” value (SHK mice; intravenous, lethal doses) was no more than 15 min and the LD16 (SHK mice) was 23.4 mg/kg. The LD84 (SHK mice) was 28.9 mg/kg, the LD100 (SHK mice) was 30.2 mg/kg and the antifungal activity [3] was “no antifungal activity at all”.

In the case of `CCCn1cc([C+](c2cn(CCC)c3ccccc23)c2cn(C3=C(N)C(=O)NC3=O)c3ccccc23)c2ccccc21.[Cl-]` [Compound 2, (1-(4-Amino-2,5-dioxo-2,5-dihydro-1H-pyrrol-3-yl)-1H-indol-3-yl)bis(1-propyl-1H-indol-3-yl) methylium chloride], the “Cytotoxic Activity IC50” value (HPF-hTERT) is reported as 2.8 µg/mL, the IC50 at 72 h [1] is reported as 2.77 µg/mL and the LD50 [2] is reported as 41.8 mg/kg. The MTD [2] was 34.1 mg/kg, the “lethal dose causing the death of more than 50% of the animals” value (SHK mice; intravenous) was 35 to 50 mg/kg and the “time of death of animals after administration” value (SHK mice; intravenous) was “in the first two hours after administration”. It also gave an LD16 (SHK mice) of 35.8 mg/kg, an LD84 (SHK mice) of 47.7 mg/kg and an LD100 (SHK mice) of 50.7 mg/kg. The antifungal activity [3] was “low antifungal activity”.

With `CCCn1cc([C+](c2cn(CCC)c3ccccc23)c2cn(C3=C(N(C)C)C(=O)NC3=O)c3ccccc23)c2ccccc21` [Compound 3, 1-(4-Dimethylamino-2,5-dioxo-2,5-dihydro-1H-pyrrol-3-yl) -1H-indol-3-yl) bis(1-propyl-1H-indol-3-yl) methylium chloride] the “Cytotoxic Activity IC50” value (HPF-hTERT) was 0.6 µg/mL, the IC50 at 72 h [1] was 0.57 µg/mL and the LD50 [2] was 24.2 mg/kg. For the same compound, the MTD [2] was 16.9 mg/kg, the “lethal dose causing the death of more than 50% of the animals” value (SHK mice; intravenous) was 25 to 40 mg/kg and the “time of death of animals after administration” value (SHK mice; intravenous) was “during the first day after administration”. For the same compound, the LD16 (SHK mice) was 18.5 mg/kg, the LD84 (SHK mice) was 29.8 mg/kg and the LD100 (SHK mice) was 32.6 mg/kg. For the same compound, the MIC ([3]; Candida albicans and Aspergillus niger) was 2 µg/mL.

For `C[C@H]1COc2c(N3CCN(C)CC3)c(F)cc3c(=O)c(C(=O)O)cn1c23` [Levofloxacin, levofloxacin, reference compound], the IC50 at 72 h [1] was greater than 50 µg/mL.

From paper PMC8878324, “Evaluation of New Antimicrobial Agents Based on tris(1H-Indol-3-yl)methylium Salts: Activity, Toxicity, Suppression of Experimental Sepsis in Mice” (Pharmaceuticals, 2022)
